Patent publication US9688678B2, “Oxindole compounds carrying a nitrogen-bound spiro substituent and use thereof for treating vasopressin-related diseases” (AbbVie Deutschland GmbH & Co. KG, priority 2014, dated 2017)

How the values were obtained:
[1] = molecular target: human vasopressin V1b receptor (Homo sapiens (Human), UniProt P47901); test: Vasopressin V1b receptor binding assay; details: membranes from CHO-K1 cells, displacement of 3H-AVP
Protocol: The test substances were dissolved in a concentration of 5 mM in 100% DMSO and further diluted to 5×10^−4 M to 5×10^−9 M. These serial DMSO predilutions were diluted 1:10 with assay buffer. The substance concentration was further diluted 1:5 in the assay mixture resulting in 2% DMSO in the mixture. All dilutions were performed in a Biomek NX automation workstation (Beckman)
The membrane pellet was again homogenized and centrifuged as described and subsequently taken up in 50 mM Tris-HCl, pH 7.4, homogenized and stored in aliquots frozen in liquid nitrogen at −190° C.
(§1) The incubation buffer was: 50 mM Tris, 10 mM MgCl2, 0.1% BSA, pH 7.4.
All determinations were carried out as duplicate determinations. […] The liquid scintillation measurement took place in a Microbeta TriLux 12 (Wallac). Analysis:
(§2) The binding parameters were calculated by nonlinear regression in SAS.

[2] = molecular target: human vasopressin V1a receptor (Homo sapiens (Human), UniProt P37288); test: Vasopressin V1a receptor binding assay; details: selectivity quotient, human V1a vs human V1b receptor
Chain of human vasopressin V1a receptor (P37288 whole entry): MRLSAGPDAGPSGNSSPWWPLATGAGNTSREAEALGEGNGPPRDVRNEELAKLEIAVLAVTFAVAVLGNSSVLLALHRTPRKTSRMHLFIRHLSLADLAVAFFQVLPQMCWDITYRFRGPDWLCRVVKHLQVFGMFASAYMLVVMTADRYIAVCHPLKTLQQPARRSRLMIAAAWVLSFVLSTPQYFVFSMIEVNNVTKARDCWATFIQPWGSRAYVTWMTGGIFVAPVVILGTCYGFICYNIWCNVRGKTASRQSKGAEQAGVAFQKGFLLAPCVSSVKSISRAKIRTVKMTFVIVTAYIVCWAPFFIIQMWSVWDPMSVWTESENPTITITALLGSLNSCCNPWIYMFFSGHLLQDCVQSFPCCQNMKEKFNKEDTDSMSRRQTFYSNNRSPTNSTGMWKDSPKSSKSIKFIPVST
Protocol: The test substances were dissolved in a concentration of 5 mM M in DMSO. Further dilution of these DMSO solutions took place as described for V1b.
The membrane pellet was again homogenized in a High-Pressure-Homogenizer, Polytec 50K at 1500 PSI (Heinemann, Germany) and subsequently taken up in 50 mM Tris-HCl, pH 7.4, homogenized and stored in aliquots frozen in liquid nitrogen at −190° C.
as §1
Duplicate determinations were carried out.
After incubation (60 minutes at room temperature), the samples were processed as described for V1b.
as §2

Chain of human vasopressin V1b receptor (P47901 whole entry): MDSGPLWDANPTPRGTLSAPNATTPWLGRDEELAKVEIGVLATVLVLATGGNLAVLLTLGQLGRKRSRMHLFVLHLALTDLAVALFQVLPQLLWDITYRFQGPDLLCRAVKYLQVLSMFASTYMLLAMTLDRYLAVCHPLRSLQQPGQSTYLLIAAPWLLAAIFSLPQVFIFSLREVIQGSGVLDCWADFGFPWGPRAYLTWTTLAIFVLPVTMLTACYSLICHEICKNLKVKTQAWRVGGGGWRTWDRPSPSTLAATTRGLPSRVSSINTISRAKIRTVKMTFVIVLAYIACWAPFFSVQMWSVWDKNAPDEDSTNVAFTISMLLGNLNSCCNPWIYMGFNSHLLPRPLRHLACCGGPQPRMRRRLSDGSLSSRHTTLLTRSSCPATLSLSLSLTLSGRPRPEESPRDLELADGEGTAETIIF

Row | SMILES | Ki [1] | Ki(h-V1a)/ Ki(h-V1b) [2]
1 | CCOc1ccc(OC)cc1C1(N2CC3(CN(C4CCN(C)CC4)C3)C2)C(=O)N(S(=O)(=O)c2ccc(C#N)cc2)c2ccc(C#N)cc21 (racemic) [Example 14, (±)-1-(4-cyanophenyl)sulfonyl-3-(2-ethoxy-5-methoxy-phenyl)-3-[2-(1-methyl-4-piperidyl)-2,6-diazaspiro[3.3]heptan-6-yl]-2-oxo-indoline-5-carbonitrile] | 10 to 100 nM | +++ (>75)
2 | CCOc1ccc(OC)cc1C1(N2CC3(CN(C4CCN(C)CC4)C3)C2)C(=O)N(S(=O)(=O)c2ccc(C)cc2)c2ccc(C#N)cc21 (racemic) [Example 15, (±)-3-(2-ethoxy-5-methoxy-phenyl)-3-[2-(1-methyl-4-piperidyl)-2,6-diazaspiro[3.3]heptan-6-yl]-2-oxo-1-(p-tolylsulfonyl)indoline-5-carbonitrile] | 10 to 100 nM | ++ (25-75)
3 | CCOc1ccc(OC)cc1C1(N2CC3(CN(C4CCN(C)CC4)C3)C2)C(=O)N(S(=O)(=O)c2ccc(F)cc2)c2ccc(C#N)cc21 (racemic) [Example 16, (±)-3-(2-ethoxy-5-methoxy-phenyl)-1-(4-fluorophenyl)sulfonyl-3-[2-(1-methyl-4-piperidyl)-2,6-diazaspiro[3.3]heptan-6-yl]-2-oxo-indoline-5-carbonitrile] | 10 to 100 nM | ++ (25-75)
4 | COc1ccc(S(=O)(=O)N2C(=O)C(c3cccnc3OC)(N3CC4(CN(C5CCN(C)CC5)C4)C3)c3cc(C#N)ccc32)nc1 (racemic) [Example 22, (±)-3-(2-methoxy-3-pyridyl)-1-[(5-methoxy-2-pyridyl)sulfonyl]-3-[2-(1-methyl-4-piperidyl)-2,6-diazaspiro[3.3]heptan-6-yl]-2-oxo-indoline-5-carbonitrile] | 1 to 10 nM | + (10-<25)
5 | COc1ccc(S(=O)(=O)N2C(=O)C(c3ccccc3OC)(N3CC4(CC(N5CCN(C)CC5)C4)C3)c3cc(C#N)ccc32)nc1 (racemic) [Example 26, (±)-3-(2-methoxyphenyl)-1-[(5-methoxy-2-pyridyl)sulfonyl]-3-[2-(4-methylpiperazin-1-yl)-6-azaspiro[3.3]heptan-6-yl]-2-oxo-indoline-5-carbonitrile] | 1 to 10 nM | ++ (25-75)
6 | CCOc1ncccc1C1(N2CC3(CC(N4CCN(C)CC4)C3)C2)C(=O)N(S(=O)(=O)c2ccc(OC)cn2)c2ccc(C#N)cc21 (racemic) [Example 27, (±)-3-(2-ethoxy-3-pyridyl)-1-[(5-methoxy-2-pyridyl)sulfonyl]-3-[2-(4-methylpiperazin-1-yl)-6-azaspiro[3.3]heptan-6-yl]-2-oxo-indoline-5-carbonitrile] | 1 to 10 nM | +++ (>75)
7 | CCOc1ccc(OC)cc1C1(N2CC3(CC(N4CCN(C5COC5)CC4)C3)C2)C(=O)N(S(=O)(=O)c2ccc(OC)cn2)c2ccc(C#N)cc21 (racemic) [Example 28, (±)-3-(2-ethoxy-5-methoxy-phenyl)-1-[(5-methoxy-2-pyridyl)sulfonyl]-3-[2-[4-(oxetan-3-yl)piperazin-1-yl]-6-azaspiro[3.3]heptan-6-yl]-2-oxo-indoline-5-carbonitrile] | 1 to 10 nM | +++ (>75)
8 | COc1ccc(S(=O)(=O)N2C(=O)C(c3cccnc3C(C)(F)F)(N3CC4(CN(C5CCN(C)CC5)C4)C3)c3cc(C#N)ccc32)nc1 (racemic) [Example 30, (±)-3-[2-(1,1-difluoroethyl)-3-pyridyl]-1-[(5-methoxy-2-pyridyl)sulfonyl]-3-[2-(1-methyl-4-piperidyl)-2,6-diazaspiro[3.3]heptan-6-yl]-2-oxo-indoline-5-carbonitrile] | 1 to 10 nM | + (10-<25)

Further lines, results first:

Row | Ki [1] | Ki(h-V1a)/ Ki(h-V1b) [2] | SMILES
9 | 1 to 10 nM | +++ (>75) | CCOc1ccccc1C1(N2CC3(CN(C4CCN(C)CC4)C3)C2)C(=O)N(S(=O)(=O)c2ccc(OC)cn2)c2ccc(C#N)cc21 (racemic) [Example 8, (±)-3-(2-ethoxyphenyl)-1-[(5-methoxy-2-pyridyl)sulfonyl]-3-[2-(1-methyl-4-piperidyl)-2,6-diazaspiro[3.3]heptan-6-yl]-2-oxo-indoline-5-carbonitrile]
10 | 1 to 10 nM | +++ (>75) | CCOc1ncccc1C1(N2CC3(CN(C4CCN(C)CC4)C3)C2)C(=O)N(S(=O)(=O)c2ccc(OC)cn2)c2ccc(C#N)cc21 (racemic) [Example 9, (±)-3-(2-ethoxy-3-pyridyl)-1-[(5-methoxy-2-pyridyl)sulfonyl]-3-[2-(1-methyl-4-piperidyl)-2,6-diazaspiro[3.3]heptan-6-yl]-2-oxo-indoline-5-carbonitrile]
11 | 1 to 10 nM | +++ (>75) | CCOc1ccc(OC)cc1C1(N2CC3(CN(C4CCN(C5COC5)CC4)C3)C2)C(=O)N(S(=O)(=O)c2ccc(OC)cn2)c2ccc(C#N)cc21 (racemic) [Example 10, (±)-3-(2-ethoxy-5-methoxy-phenyl)-1-[(5-methoxy-2-pyridyl)sulfonyl]-3-[2-[1-(oxetan-3-yl)-4-piperidyl]-2,6-diazaspiro[3.3]heptan-6-yl]-2-oxo-indoline-5-carbonitrile]
12 | < 1 nM | +++ (>75) | CCOc1ccc(OC)cc1C1(N2CC3(CC(N4CCN(C)CC4)C3)C2)C(=O)N(S(=O)(=O)c2ccc(OC)cn2)c2ccc(C#N)cc21 (racemic) [Example 17, (±)-3-(2-ethoxy-5-methoxy-phenyl)-1-[(5-methoxy-2-pyridyl)sulfonyl]-3-[2-(4-methylpiperazin-1-yl)-6-azaspiro[3.3]heptan-6-yl]-2-oxo-indoline-5-carbonitrile]
13 | < 1 nM | +++ (>75) | COc1ccc(S(=O)(=O)N2C(=O)C(c3ccccc3OC)(N3CC4(CN(C5CCN(C)CC5)C4)C3)c3cc(C#N)ccc32)nc1 (racemic) [Example 18, (±)3-(2-methoxyphenyl)-1-[(5-methoxy-2-pyridyl)sulfonyl]-3-[2-(1-methyl-4-piperidyl)-2,6-diazaspiro[3.3]heptan-6-yl]-2-oxo-indoline-5-carbonitrile]
14 | < 1 nM | +++ (>75) | CCOc1ccc(OC)cc1C1(N2CC3(CN(C4CCN(C(C)C)CC4)C3)C2)C(=O)N(S(=O)(=O)c2ccc(OC)cn2)c2ccc(C#N)cc21 (racemic) [Example 19, (±)-3-(2-ethoxy-5-methoxy-phenyl)-3-[2-(1-isopropyl-4-piperidyl)-2,6-diazaspiro[3.3]heptan-6-yl]-1-[(5-methoxy-2-pyridyl)sulfonyl]-2-oxo-indoline-5-carbonitrile]
15 | 1 to 10 nM | +++ (>75) | CCOc1ccc(OC)cc1C1(N2CC3(CN(C4CCN(CCOC)CC4)C3)C2)C(=O)N(S(=O)(=O)c2ccc(OC)cn2)c2ccc(C#N)cc21 (racemic) [Example 20, (±)-3-(2-ethoxy-5-methoxy-phenyl)-3-[2-[1-(2-methoxyethyl)-4-piperidyl]-2,6-diazaspiro[3.3]heptan-6-yl]-1-[(5-methoxy-2-pyridyl)sulfonyl]-2-oxo-indoline-5-carbonitrile]
16 | < 1 nM | + (10-<25) | COc1ccc(S(=O)(=O)N2C(=O)C(c3cc(OC)ccc3OC)(N3CC4(CN(C5CCN(C)CC5)C4)C3)c3cc(C#N)ccc32)nc1 (racemic) [Example 21, (±)-3-(2,5-dimethoxyphenyl)-1-[(5-methoxy-2-pyridyl)sulfonyl]-3-[2-(1-methyl-4-piperidyl)-2,6-diazaspiro[3.3]heptan-6-yl]-2-oxo-indoline-5-carbonitrile]
17 | < 1 nM | +++ (>75) | CCOc1ccc(OC)cc1C1(N2CC3(CN(C4CCN(C)CC4)C3)C2)C(=O)N(S(=O)(=O)c2ccc(OC)cn2)c2ccc(C#N)cc21 (single isomer, unassigned; (+)) [Example 1A, (+)-3-(2-ethoxy-5-methoxy-phenyl)-1-[(5-methoxy-2-pyridyl)sulfonyl]-3-[2-(1-methyl-4-piperidyl)-2,6-diazaspiro[3.3]heptan-6-yl]-2-oxo-indoline-5-carbonitrile]
18 | < 1 nM | +++ (>75) | CCOc1ncccc1C1(N2CC3(CN(C4CCN(C)CC4)C3)C2)C(=O)N(S(=O)(=O)c2ccc(OC)cn2)c2ccc(C#N)cc21 (single isomer, unassigned; (+)) [Example 9A, (+)-3-(2-ethoxy-3-pyridyl)-1-[(5-methoxy-2-pyridyl)sulfonyl]-3-[2-(1-methyl-4-piperidyl)-2,6-diazaspiro[3.3]heptan-6-yl]-2-oxo-indoline-5-carbonitrile]
19 | < 1 nM | +++ (>75) | CCOc1ccc(OC)cc1C1(N2CC3(CN(C4CCN(C5COC5)CC4)C3)C2)C(=O)N(S(=O)(=O)c2ccc(OC)cn2)c2ccc(C#N)cc21 (single isomer, unassigned; (+)) [Example 11, (+)-3-(2-ethoxy-5-methoxyphenyl)-1-((5-methoxypyridin-2-yl)sulfonyl)-3-(6-(1-(oxetan-3-yl)piperidin-4-yl)-2,6-diazaspiro[3.3]heptan-2-yl)-2-oxoindoline-5-carbonitrile]
